Experiments:
Format in all cases: functional
UO-31 = test: Cytotoxicity against human UO31 cells assessed as cellular growth at 10 uM by SRB assay
SN12C = test: Cytotoxicity against human SN12C cells assessed as cellular growth at 10 uM by SRB assay
SR = test: Cytotoxicity against human SR cells assessed as cellular growth at 10 uM by SRB assay
HT-29 = test: Cytotoxicity against human HT-29 cells assessed as cellular growth at 10 uM by SRB assay
Malme-3M = test: Cytotoxicity against human MALME-3M cells assessed as cellular growth at 10 uM by SRB assay
MOLT-4 = test: Cytotoxicity against human MOLT4 cells assessed as cellular growth at 10 uM by SRB assay
SK-MEL-28 = test: Cytotoxicity against human SK-MEL-28 cells assessed as cellular growth at 10 uM by SRB assay
OVCAR-8 = test: Cytotoxicity against human OVCAR8 cells assessed as cellular growth at 10 uM by SRB assay
IGROV-1 = test: Cytotoxicity against human IGROV1 cells assessed as cellular growth at 10 uM by SRB assay
HL-60(TB) = test: Cytotoxicity against human HL-60(TB) cells assessed as cellular growth at 10 uM by SRB assay
BT-549 = test: Cytotoxicity against human BT549 cells assessed as cellular growth at 10 uM by SRB assay
SF-295 = test: Cytotoxicity against human SF295 cells assessed as cellular growth at 10 uM by SRB assay
MDA-MB-231 = test: Cytotoxicity against human MDA-MB-231 cells assessed as cellular growth at 10 uM by SRB assay
A498 = test: Cytotoxicity against human A498 cells assessed as cellular growth at 10 uM by SRB assay
OVCAR-4 = test: Cytotoxicity against human OVCAR4 cells assessed as cellular growth at 10 uM by SRB assay
OVCAR-5 = test: Cytotoxicity against human OVCAR5 cells assessed as cellular growth at 10 uM by SRB assay
DU-145 = test: Cytotoxicity against human DU145 cells assessed as cellular growth at 10 uM by SRB assay
EKVX = test: Cytotoxicity against human EKVX cells assessed as cellular growth at 10 uM by SRB assay
SK-MEL-2 = test: Cytotoxicity against human SK-MEL-2 cells assessed as cellular growth at 10 uM by SRB assay

Structure (SMILES) | Activity (UO-31) [%] | Activity (SN12C) [%] | Activity (SR) [%] | Activity (HT-29) [%] | Activity (Malme-3M) [%] | Activity (MOLT-4) [%] | Activity (SK-MEL-28) [%] | Activity (OVCAR-8) [%] | Activity (IGROV-1) [%] | Activity (HL-60(TB)) [%] | Activity (BT-549) [%] | Activity (SF-295) [%] | Activity (MDA-MB-231) [%] | Activity (A498) [%] | Activity (OVCAR-4) [%] | Activity (OVCAR-5) [%] | Activity (DU-145) [%] | Activity (EKVX) [%] | Activity (SK-MEL-2) [%]
O=C(Nc1ccc(S(=O)(=O)Nc2nccs2)cc1)c1cccs1 | 95.49 | 103.07 | 101.57 | 101.43 | 104.82 | 95.09 | 115.4 | 106.2 | 120.24 | 85.93 | 114.16 | 140.51 | 103.15 | 114.15 | 103.47 | 112.09 | 114.06 | 97.85 | 113.23
O=C(NCc1ccc(Cl)cc1)c1[nH]c2ccccc2c1Cl | 80.6 | 99.33 | – | 108.03 | 98.93 | 88.19 | 109.03 | 104.08 | 106.79 | 109.59 | 104.79 | 94.4 | 106.69 | 76.55 | 100.82 | 116.56 | 105.86 | 83.18 | 111.13
COc1cccc(C(=O)Nc2nc3ccc(Cl)cc3s2)c1 | 92.38 | 101.74 | 61.65 | 80.12 | 95.69 | 83.68 | 101.98 | 98.65 | 74.3 | 68.73 | 101.44 | 67.73 | 95.48 | 86.56 | – | 108.78 | 104.09 | 81.47 | 108.68
Nc1c(C(=O)Nc2ccccc2)sc2nc3c(cc12)C(=O)CCC3 | 71.08 | 59.85 | 21.95 | 4.34 | 76.23 | 43.43 | 58.69 | 39.92 | 36.43 | 19.38 | 65.66 | -12.42 | 52.08 | 37.32 | – | 59.92 | 0.62 | 84.59 | 38.68
Nc1c(C(=O)Nc2ccc(Cl)c(Cl)c2)sc2nc(-c3cccs3)ccc12 | 83.99 | 89.08 | 56.67 | 87.42 | 90.04 | 83.49 | 97.42 | 98.27 | 122.32 | 99.11 | 76.11 | 106.17 | 84.38 | – | 55.74 | 94.42 | 91.96 | 93.39 | 58.47
Cc1ccc(C2=N/C(=C\c3ccccc3)C(=O)O2)cc1 | 102.89 | 98.61 | 88.58 | 107.8 | 105.62 | 91.17 | 105.81 | 102.69 | – | 95.82 | 103.91 | – | 105.18 | – | 108.84 | 95.31 | 106.2 | 90.26 | 108.55
Clc1cccc(-c2nc(-c3cccs3)no2)c1 | 71.35 | 100.21 | 100.52 | 95.99 | 111.38 | 96.35 | 111.9 | 101.14 | 77.14 | 108.47 | 101.91 | 108.42 | 84.18 | 107.84 | – | – | 97.4 | 85.39 | 103.17
O=c1/c(=C/c2ccccc2)sc2nc(-c3ccc(Cl)cc3Cl)nn12 | 88.97 | 106.99 | – | – | 121.75 | – | 109.52 | 102.91 | 102.56 | – | 105.68 | 123.35 | – | 108.54 | – | – | 108.27 | 110.01 | 117.96
CC1(C)CC(=O)c2cc3c(N)c(C(=O)Nc4ccc(F)cc4)sc3nc2C1 | 119.15 | 122.37 | 111.31 | 110.56 | 116.52 | 121.66 | 113.65 | 108.67 | 119.45 | 115.83 | 111.85 | 88.4 | 112.36 | 87.2 | – | 92.85 | 122.42 | 100.32 | 122.76
O=c1/c(=C/c2ccccc2Cl)sc2nc(-c3ccccc3)nn12 | 58.67 | 94.39 | 45.36 | 112.54 | 92.95 | 69.85 | 109.04 | 97.99 | 96.71 | 66.88 | 91.77 | 99.98 | 90.97 | – | – | 119.68 | 92.88 | 99.45 | 100.14
